Target: T1, 5-hydroxytryptamine receptor 1A (Oryctolagus cuniculus, UniProt Q9MZ11)
T1 sequence (Q9MZ11 whole entry): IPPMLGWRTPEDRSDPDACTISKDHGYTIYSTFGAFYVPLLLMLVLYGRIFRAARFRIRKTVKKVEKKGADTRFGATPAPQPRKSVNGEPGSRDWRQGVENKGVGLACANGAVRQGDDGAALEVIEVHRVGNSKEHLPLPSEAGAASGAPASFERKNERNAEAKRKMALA

| Compound | Ki [nM] |
| --- | --- |
| O=C1NCN(c2ccccc2)C12CCN(CC1COc3ccccc3O1)CC2 (stereo unspecified) [8-(2,3-Dihydro-benzo[1,4]dioxin-2-ylmethyl)-1-phenyl-1,3,8-triaza-spiro[4.5]decan-4-one] | 2.4 |
| FC(F)(F)c1cccc(N2CCNCC2)c1 [TFMPP] | 130 |
| CSc1ccc2c(c1)C(N1CCN(C)CC1)Cc1ccccc1S2 (stereo unspecified) [methanesulfonic acid;1-methyl-4-(3-methylsulfanyl-5,6-dihydrobenzo[b][1]benzothiepin-5-yl)piperazine] | 810 |
| COc1cccc(OC)c1OCCNCC1Oc2ccccc2OC1c1ccccc1 (stereo unspecified) [NSC_185453] | 3 |
| C=C1C(=O)O[C@H]2[C@H]1CC/C(C)=C\CC[C@@]1(C)O[C@@H]21 | > 10000 |
| NCCc1ccc(O)c(O)c1 | 7800 |
